Data as given in patent publication US20100292185A1, “BETA-LACTAMASE INHIBITORS” (priority 2009, published 2010).
Counter-ions that a name gives are not always drawn. Like-named read-outs stand apart in the source and are kept apart here.

Experiments:
[1] = test system: E. cloacae expressing the Class C P99+; test: In vitro antibacterial assay of β-lactamase inhibition (broth microdilution MIC), E. cloacae P99+; assay type: cell-based; conditions: in presence of Ceftazidime 8 μg/ml (Examples 1-56)
Procedure, shortened: (§1)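 MIC read by eye after 16-20 h at 37° C. Compounds were titrated 2-fold from 8 μg/mL down to 0.015 μg/mL (final) in CAMHB with a β-lactam antibiotic, and wells were inoculated per CLSI with strains grown 3-5 h under 50 μg/mL ampicillin.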

[2] = test system: P. aeruginosa expressing the Class B metallo β-lactamase VIM-2; test: In vitro antibacterial assay of β-lactamase inhibition (broth microdilution MIC), P. aeruginosa VIM-2; assay type: cell-based; conditions: in presence of Ceftazidime 16 μg/mL (Examples 1-56)
Procedure, shortened: as §1

[3] = biological target: T1, KPC-2 β-lactamase (Klebsiella pneumoniae, UniProt Q9F663); test: β-lactamase enzyme inhibition assay (nitrocefin substrate), KPC-2; assay type: biochemical
T1 construct: expressed as native untagged proteins; made in house; host or cells: E. coli BL21(DE3)
Procedure, shortened: (§2)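 Native untagged enzymes were expressed in E. coli BL21(DE3) and purified by cation exchange and gel filtration. Compounds (100–0.005 µM, PBS pH 7.0) were preincubated with enzyme for 10 min at 37 °C, then 100 µM nitrocefin was added and read kinetically at 486 nm for 10 min. IC50 is the concentration giving 50% reduction of initial hydrolysis rate versus uninhibited controls.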

[4] = biological target: T2, SHV-5 β-lactamase (Klebsiella pneumoniae, UniProt P0A3M1); test: β-lactamase enzyme inhibition assay (nitrocefin substrate), SHV-5; assay type: biochemical
T2 construct: expressed as native untagged proteins; made in house; host or cells: E. coli BL21(DE3)
Procedure, shortened: as §2

[5] = test system: K. pneumoniae expressing the Class A Extended Spectrum Beta-Lactamase (ESBL) CTX-M-15; test: In vitro antibacterial assay of β-lactamase inhibition (broth microdilution MIC), K. pneumoniae CTX-M-15; assay type: cell-based; conditions: in presence of Ceftazidime 8 μg/ml (Examples 1-56)
Procedure, shortened: as §1

[6] = biological target: T3, VIM-2 metallo β-lactamase (Pseudomonas aeruginosa, UniProt Q9K2N0); test: β-lactamase enzyme inhibition assay (nitrocefin substrate), VIM-2; assay type: biochemical
T3 construct: made in house
Procedure, shortened: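 VIM-2 was expressed untagged in E. coli BL21(DE3) and purified by two Q sepharose anion-exchange runs plus gel filtration to >90% purity. Compounds at 100–0.005 μM in PBS pH 7.0 were preincubated with enzyme for 10 min at 37° C, then nitrocefin was added at 100 μM final. Hydrolysis was followed kinetically at 486 nm for 10 min; IC50 is the concentration halving the initial rate relative to no-inhibitor wells.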

[7] = biological target: T4, OXA-23 β-lactamase (Acinetobacter baumannii, UniProt Q9L4P2); test: β-lactamase enzyme inhibition assay (nitrocefin substrate), OXA-23 crude extract; assay type: biochemical
T4 construct: crude β-lactamase extracts were prepared from 20 ml overnight cultures; endogenous in cells; host or cells: Acinetobacter baumannii cells containing OXA-23 (crude freeze-thaw extract)
Procedure, shortened: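 Crude enzyme came from freeze-thaw extracts of mid-log OXA-23-carrying A. baumannii grown in MH-II broth at 37° C. Inhibitors (100–0.005 μM in PBS pH 7.0) were preincubated with the enzyme for 10 min at 37° C, then 100 μM nitrocefin (final) was added and read kinetically at 486 nm for 10 min. IC50 was taken from initial hydrolysis rates relative to uninhibited controls.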

[8] = test system: E. coli expressing the Class A ESBL SHV-5; test: In vitro antibacterial assay of β-lactamase inhibition (broth microdilution MIC), E. coli SHV-5; assay type: cell-based; conditions: in presence of Ceftazidime 8 μg/ml (Examples 1-56)
Procedure, shortened: as §1

[9] = biological target: T5, p99 AmpC β-lactamase (Enterobacter cloacae, UniProt P05364); test: β-lactamase enzyme inhibition assay (nitrocefin substrate), P99 AmpC; assay type: biochemical
T5 construct: expressed as native untagged proteins; made in house; host or cells: E. coli BL21(DE3)
Procedure, shortened: as §2

[10] = biological target: T6, CTX-M15 β-lactamase (Escherichia coli, UniProt Q9EXV5); test: β-lactamase enzyme inhibition assay (nitrocefin substrate), CTXM-15; assay type: biochemical
T6 construct: expressed as native untagged proteins; made in house; host or cells: E. coli BL21(DE3)
Procedure, shortened: as §2

[11] = test system: K. pneumoniae expressing the Class A carbapenemase KPC-2; test: microbe, parasite or virus in culture; assay type: cell-based; conditions: in presence of Ceftazidime 8 μg/ml (Examples 1-56)
Procedure, shortened: as §1

[12] = nitrocefin 100 μM, 37° C., PBS pH 7.0, read-out: VIM-2 IC50
[13] = nitrocefin 100 μM, 37° C., PBS pH 7.0, read-out: OXA-23 IC50
[14] = nitrocefin 100 μM, 37° C., PBS pH 7.0, read-out: P99 AmpC IC50

T6 sequence (Q9EXV5 entry or part of it): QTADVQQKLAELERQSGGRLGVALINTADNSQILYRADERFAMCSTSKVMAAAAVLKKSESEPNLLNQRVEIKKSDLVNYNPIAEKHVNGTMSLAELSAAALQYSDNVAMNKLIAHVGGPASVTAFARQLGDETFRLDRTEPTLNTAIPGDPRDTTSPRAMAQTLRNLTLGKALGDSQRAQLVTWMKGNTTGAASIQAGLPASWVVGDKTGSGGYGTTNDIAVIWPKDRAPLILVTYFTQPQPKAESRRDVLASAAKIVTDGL
T4 sequence (Q9L4P2 18-273): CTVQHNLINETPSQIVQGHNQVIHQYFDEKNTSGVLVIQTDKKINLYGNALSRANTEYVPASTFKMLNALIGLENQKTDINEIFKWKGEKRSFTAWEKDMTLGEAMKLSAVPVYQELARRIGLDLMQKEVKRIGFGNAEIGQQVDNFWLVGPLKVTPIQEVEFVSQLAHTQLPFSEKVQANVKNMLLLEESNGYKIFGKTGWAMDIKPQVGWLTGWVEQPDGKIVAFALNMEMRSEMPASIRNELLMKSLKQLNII
T5 sequence (P05364 21-381): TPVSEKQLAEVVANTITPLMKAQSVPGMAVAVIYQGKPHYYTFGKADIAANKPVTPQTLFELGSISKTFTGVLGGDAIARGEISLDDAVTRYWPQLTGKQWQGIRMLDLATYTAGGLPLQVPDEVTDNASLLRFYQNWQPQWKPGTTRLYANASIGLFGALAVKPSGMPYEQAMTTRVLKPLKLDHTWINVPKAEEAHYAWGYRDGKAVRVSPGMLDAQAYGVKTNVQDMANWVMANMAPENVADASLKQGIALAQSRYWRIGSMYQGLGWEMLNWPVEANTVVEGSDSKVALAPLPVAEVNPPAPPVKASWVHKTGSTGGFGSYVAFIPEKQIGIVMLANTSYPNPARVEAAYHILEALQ
T2 sequence (P0A3M1 22-286): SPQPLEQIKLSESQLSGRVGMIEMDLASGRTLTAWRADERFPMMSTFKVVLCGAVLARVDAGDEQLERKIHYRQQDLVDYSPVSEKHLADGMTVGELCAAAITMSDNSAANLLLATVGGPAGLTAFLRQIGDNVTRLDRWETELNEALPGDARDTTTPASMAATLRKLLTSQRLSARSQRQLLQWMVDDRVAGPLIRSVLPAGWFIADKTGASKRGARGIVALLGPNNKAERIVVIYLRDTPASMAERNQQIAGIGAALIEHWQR
T1 sequence (Q9F663 25-293 limits assumed): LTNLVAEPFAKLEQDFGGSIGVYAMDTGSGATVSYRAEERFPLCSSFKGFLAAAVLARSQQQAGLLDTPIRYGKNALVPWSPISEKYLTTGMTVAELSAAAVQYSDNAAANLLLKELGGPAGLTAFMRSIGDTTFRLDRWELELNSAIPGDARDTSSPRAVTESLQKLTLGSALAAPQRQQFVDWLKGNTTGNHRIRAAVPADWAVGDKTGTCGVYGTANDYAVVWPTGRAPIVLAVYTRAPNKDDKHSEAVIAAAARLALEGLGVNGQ

| Molecule | MIC of example compound, E. cloacae P99+ [1] [mg/L] | MIC of example compound, P. aeruginosa VIM-2 [2] [mg/L] | IC50 [3] [µM] | IC50 [4] [µM] | MIC of example compound, K. pneumoniae CTX-M-15 [5] [mg/L] | IC50 [6, 12] [µM] | IC50 [7, 13] [µM] | MIC of example compound, E. coli SHV-5 [8] [mg/L] | IC50 [9, 14] [µM] | IC50 [10] [µM] | MIC of example compound, K. pneumoniae KPC-2 [11] [mg/L] | IC50 ([3]; nitrocefin 100 μM, 37° C., PBS pH 7.0, read-out: KPC-2 IC50) [µM] | IC50 ([4]; nitrocefin 100 μM, 37° C., PBS pH 7.0, read-out: SHV-5 IC50) [µM] | IC50 ([10]; nitrocefin 100 μM, 37° C., PBS pH 7.0, read-out: CTXM-15 IC50) [µM] | IC50 [9] [µM] | IC50 [6] [µM] | IC50 [7] [µM] |
| --- | --- | --- | --- | --- | --- | --- | --- | --- | --- | --- | --- | --- | --- | --- | --- | --- | --- |
| Cl.Nc1cncc(C(=O)N[C@@H](Cc2cccc(C(=O)O)c2O)B(O)O)c1 [Example 44, (2R)-3-{[2-(5-amino-pyridine-3-carbonyl)-amino]-2-borono-ethyl}-2-hydroxy-benzoic acid hydrochloride] | 1 | >8 | 0.03 | 0.07 | 0.25 | 0.69 | 0.12 | 1 | 0.001 | 0.002 | 0.015 |  |  |  |  |  |  |
| Cl.O=C(N[C@@H](Cc1cccc(C(=O)O)c1O)B(O)O)c1ccc(CN2CCCC(C(=O)O)C2)cc1 (stereo partly drawn) [Example 12, (1R)-[4-(piperidine-3-carboxylic acid)-methyl]-benzoylamino-(3-carboxy-2-hydroxy)benzyl-methyl boronic acid hydrochloride] | 2 | >8 | 0.011 | 0.87 | 1 | 0.93 | > 1 | 4 | 0.9 | 0.003 | 0.03 |  |  |  |  |  |  |
| (1R)-[3-{(2-hydroxy-ethylamino)-methyl}-benzoylamino]-(3-carboxy-2-hydroxy)benzyl-methylboronic acid formate [Example 43] | 0.5 | >8 |  |  | 0.5 | 0.184 | 0.038 | 2 | 0.009 |  | <0.015 | 0.07 | 0.004 | 0.012 |  |  |  |
| C[N+]1(Cc2ccc(CC(=O)N[C@@H](Cc3cccc(C(=O)O)c3O)B(O)O)cc2)CCOCC1 [Example 41, 4-(4-{[2-(3-carboxy-2-hydroxy-phenyl)-1-borono-ethylcarbamoyl]-methyl}-benzyl)-4-methyl-morpholin-4-ium formate] | 1 | >8 | 0.01 | 0.004 | 0.25 | > 1 | 0.201 | 0.5 |  | 0.002 | 0.03 |  |  |  | 0.02 |  |  |
| CCC(=O)C(=O)N[C@@H](Cc1cccc(C(=O)O)c1O)B(O)O [Example 56, 3-[2(R)-(2-oxo-butyrylamino)-2-borono-ethyl]-2-hydroxy-benzoic acid] | 2 | >8 | 0.024 | 0.195 | 4 | > 1 | 0.031 | >8 | 0.002 | 0.011 | 0.25 |  |  |  |  |  |  |
| O=C(N[C@@H](Cc1cccc(C(=O)O)c1O)B(O)O)c1ccc(C[n+]2ccccc2)cc1 [Example 14, (1R)-[4-(pyridinium)-methyl]-benzoylamino-(3-carboxy-2-hydroxy)benzyl-methyl boronic acid chloride] | 0.5 | >8 | 0.021 | > 1 | >8 |  |  | >8 |  | 0.001 | 0.01 |  |  |  | 0.029 | 0.36 | > 1 |
| Cl.NCc1ccc(C(=O)N[C@@H](Cc2cccc(C(=O)O)c2O)B(O)O)cc1 [Example 2, 2(R)-3-[2-(4-(Aminomethyl)benzoylamino)-2-borono-ethyl]-2-hydroxy-benzoic acid hydrochloride] | 0.25 | 8 | 0.013 | > 1 | 2 | 0.022 | > 1 | 8 | 0.003 | 0.002 | 0.015 |  |  |  |  |  |  |
| CNCc1cccc(C(=O)N[C@@H](Cc2cccc(C(=O)O)c2O)B(O)O)c1 [Example 21, (1R)-(3-methylaminomethyl-benzoylamino)-(3-carboxy-2-hydroxy)benzyl-methylboronic acid formate] | 0.25 | >8 | 0.019 | 0.83 | 1 | 0.142 | 0.033 | 4 | 0.002 | 0.003 | 0.01 |  |  |  |  |  |  |
| O=C(N[C@@H](Cc1cccc(C(=O)O)c1O)B(O)O)c1ccc(CN2CCOCC2)cc1 [Example 3, 2(R)-3-[2-(4-(Morpholinomethyl)benzoylamino)-2-borono-ethyl]-2-hydroxy-benzoic acid formate] | 4 | >8 | 0.014 | 0.367 | 2 | 0.85 | > 1 | 8 | 0.003 | 0.004 | 0.12 |  |  |  |  |  |  |
